{"source": "patent US4389486A", "about": "“Biologically pure culture” (Kowa Company, Ltd., priority 1977, dated 1983)", "key": {"[1]": {"experiment": "Stability to pH", "type": "physicochemical"}, "[2]": {"experiment": "Solubility", "type": "physicochemical"}, "[3]": {"experiment": "Acute toxicity in mice", "conditions": "mouse, in vivo", "text": "The acute toxicities of the KA-6606 I, II, III and IV of this invention determined by using mice are as follows."}, "[4]": {"conditions": "in chloroform, ethyl acetate, diethyl ether, hexane and petroleum ether"}}, "data": [{"smiles": "COC1CC(N)C(OC2OC(C(C)N)CCC2N)C(O)C1N(C)C(=O)CNC(N)=O", "note": "(centres unmarked) [KA-6606 III]", "values": [{"measurement": "Stability", "setting": "[1]; in basicity and strong acidity", "value": "gradually decomposed and inactivated"}, {"measurement": "Stability", "setting": "[1]; pH of 3 to 8", "value": "Stable"}, {"measurement": "Solubility", "setting": "[2]; [4]", "value": "insoluble"}, {"measurement": "Solubility", "setting": "[2]; in ethanol", "value": "slightly soluble"}, {"measurement": "Solubility", "setting": "[2]; in methanol", "value": "easily soluble"}, {"measurement": "Solubility", "setting": "[2]; in water", "value": "Very readily soluble"}, {"measurement": "LD50", "setting": "[3]; iv.", "value": "> 200", "unit": "mg/kg"}, {"measurement": "LD50", "setting": "[3]; sc.", "value": "> 800", "unit": "mg/kg"}]}, {"smiles": "COC1CC(N)C(OC2OC(C(C)N)CCC2N)C(O)C1N(C)C(=O)CNC=O", "note": "(centres unmarked) [KA-6606 IV]", "values": [{"measurement": "Stability", "setting": "[1]; in basicity and strong acidity", "value": "gradually decomposed and inactivated"}, {"measurement": "Stability", "setting": "[1]; pH of 3 to 8", "value": "Stable"}, {"measurement": "Solubility", "setting": "[2]; [4]", "value": "insoluble"}, {"measurement": "Solubility", "setting": "[2]; in ethanol", "value": "slightly soluble"}, {"measurement": "Solubility", "setting": "[2]; in methanol", "value": "easily soluble"}, {"measurement": "Solubility", "setting": "[2]; in water", "value": "Very readily soluble"}, {"measurement": "LD50", "setting": "[3]; iv.", "value": "> 200", "unit": "mg/kg"}, {"measurement": "LD50", "setting": "[3]; sc.", "value": "> 800", "unit": "mg/kg"}]}, {"smiles": "CNC1C(OC)CC(N)C(OC2OC(C(C)N)CCC2N)C1O", "note": "(centres unmarked) [KA-6606 II]", "values": [{"measurement": "Stability", "setting": "[1]; in strong acidity", "value": "gradually decomposed and inactivated"}, {"measurement": "Stability", "setting": "[1]; pH of at least 2", "value": "Stable"}, {"measurement": "Solubility", "setting": "[2]; [4]", "value": "insoluble"}, {"measurement": "Solubility", "setting": "[2]; in ethanol", "value": "slightly soluble"}, {"measurement": "Solubility", "setting": "[2]; in methanol", "value": "easily soluble"}, {"measurement": "Solubility", "setting": "[2]; in water", "value": "Very readily soluble"}, {"measurement": "LD50", "setting": "[3]; iv.", "value": "> 400", "unit": "mg/kg"}, {"measurement": "LD50", "setting": "[3]; sc.", "value": "> 1000", "unit": "mg/kg"}]}, {"smiles": "COC1CC(N)C(OC2OC(C(C)N)CCC2N)C(O)C1N(C)C(=O)CN", "note": "(centres unmarked) [KA-6606 I]", "values": [{"measurement": "Stability", "setting": "[1]; in basicity and strong acidity", "value": "gradually decomposed and inactivated"}, {"measurement": "Stability", "setting": "[1]; pH of 3 to 8", "value": "Stable"}, {"measurement": "Solubility", "setting": "[2]; [4]", "value": "Insoluble"}, {"measurement": "Solubility", "setting": "[2]; in ethanol", "value": "slightly soluble"}, {"measurement": "Solubility", "setting": "[2]; in methanol", "value": "Easily soluble"}, {"measurement": "Solubility", "setting": "[2]; in water", "value": "Very readily soluble"}, {"measurement": "LD50", "setting": "[3]; iv.", "value": "50 to 100", "unit": "mg/kg"}, {"measurement": "LD50", "setting": "[3]; sc.", "value": "200 to 400", "unit": "mg/kg"}]}]}
